Reference: patent US20060205028A1, “Active-site titration of glycosyl hydrolases” (Novozymes A/S, priority 2003, published 2006)

System: xylanase Shearzyme
Assay: Burst active site titration of xylanase
Type: biochemical
Settings: for Burst B: pH 5.0, room temperature
Experimental: The synthesized burst active site titrant 2,4-dinitrophenyl 2-deoxy-2-flouro-β-D-xylopyranoside was dissolved in Milli Q water. 100 μl dissolved titrant was mixed with 50 μl assay buffer (50 mM sodium acetate, 0.0225% Brij 35, pH 5.0) and 50 μl of a purified sample of the commercial xylanase Shearzyme (available from Novozymes) diluted in Milli Q water in the wells of a microtiter plate. Final concentrations of 2,4-dinitrophenyl 2-deoxy-2-flouro-β-D-xylopyranoside were 0.5 mM and 1 mM, whereas the xylanase was added to give final absorbances at 280 nm of 13.4, 6.7 and 3.3. After mixing, absorbance was read at 405 nm at room temperature every 7 min for 30 hours using a SpectraMax Plus (Molecular Devices) microtiter plate reader. After subtraction of absorbances read in wells with same concentration of titrant but without enzyme, the measurements were fitted to the equation: A405=B*(1−exp(−(t+LT)*ln(2)/T1/2))+S*(t+LT)
where A405 is the absorbance at 405 nm, B is the burst in absorbance at 405 nm, t is the time from first measurement of absorbance, LT is the lag time from mixing of the reagents to first measurement of absorbance, T1/2 is the half time for the exponential burst phase and S is the slope due to hydrolysis of the enzyme 2-deoxy-2-fluoro-β-D-xylopyranose complex.

[1] = Xylanase A280 3.3, titrant 0.5 mM
[2] = Xylanase A280 3.3, titrant 1 mM
[3] = Xylanase A280 6.7, titrant 0.5 mM
[4] = Xylanase A280 6.7, titrant 1 mM
[5] = Xylanase A280 13.4, titrant 0.5 mM
[6] = Xylanase A280 13.4, titrant 1 mM

- Slope S (hydrolysis of the enzyme 2-deoxy-2-fluoro-β-D-xylopyranose complex) [1]: 0.00 A405/h
- Burst B [1]: 0.24 A405
- Slope S (hydrolysis of the enzyme 2-deoxy-2-fluoro-β-D-xylopyranose complex) [2]: 0.00 A405/h
- Burst B [2]: 0.23 A405
- Slope S (hydrolysis of the enzyme 2-deoxy-2-fluoro-β-D-xylopyranose complex) [3]: 0.00 A405/h
- Burst B [3]: 0.47 A405
- Slope S (hydrolysis of the enzyme 2-deoxy-2-fluoro-β-D-xylopyranose complex) [4]: 0.00 A405/h
- Burst B [4]: 0.48 A405
- Slope S (hydrolysis of the enzyme 2-deoxy-2-fluoro-β-D-xylopyranose complex) [5]: 0.00 A405/h
- Burst B [5]: 0.84 A405
- Slope S (hydrolysis of the enzyme 2-deoxy-2-fluoro-β-D-xylopyranose complex) [6]: 0.00 A405/h
- Burst B [6]: 0.90 A405
SMILES: O=[N+]([O-])c1ccc(O[C@@H]2OC[C@@H](O)[C@H](O)[C@H]2F)c([N+](=O)[O-])c1 [2,4-dinitrophenyl 2-deoxy-2-flouro-β-D-xylopyranoside]
